Calls of active or inactive are those of the source. The rule behind the calls is not given here. Where a SMILES comes first, the peptide text is derived from it. Bridges are numbered along the chain shown (N, C = ends). [ ]: non-standard residue; d: D form. AEEA = NCCOCCOCC(=O)O
Experiments:
[1] = Stability of compound in HUVEC cell lysates assessed as parent compound remaining after 6 hrs by HPLC-MS; assay type: ADME, subcellular; details: human; for Stabilty: huvec, 6 h
HUVEC [2] = experiment: Induction of angiogenesis in HUVEC assessed as tube formation at 2 ug/ml after 2 hrs by inverted microscopy; assay type: functional; details: Homo sapiens, dose 2.0 µg/ml
HUVEC [3] = experiment: Induction of angiogenesis in HUVEC assessed as tube formation at 2 ug/ml after 18 hrs by inverted microscopy; assay type: functional; details: Homo sapiens, dose 2.0 µg/ml
[4] = Stability of compound in human serum assessed as parent compound remaining after 6 hrs by HPLC-MS; assay type: ADME, cell-free; details: for Stabilty: 6 h
HUVEC [5] = experiment: Induction of angiogenesis in HUVEC assessed as tube formation at 2 ug/ml upto 24 hrs by inverted microscopy; assay type: functional; details: Homo sapiens, dose 2.0 µg/ml

Row | Stabilty [1] | remaining at 6 h ([4]; read-out: Stabilty) [%] | remaining at 6 h ([1]; HUVEC cell lysates, read-out: Stabilty) [%] | Stabilty [4] | Molecule | Activity (HUVEC [2]) | Activity (HUVEC [3]) | Activity (HUVEC [5])
1 | Stable | – | – | – | CC(C)C[C@H](NC(=O)CNC(=O)[C@H](Cc1ccccc1)NC(=O)[C@@H](NC(=O)[C@@H](NC(=O)[C@H](CO)NC(=O)COCCOCCN)C(C)C)C(C)C)C(=O)N[C@@H](CCCNC(=N)N)C(N)=O (H-[AEEA]SVVFGLR-NH2) | – | – | –
2 | Unstable | 80 | – | – | CC(C)C[C@@H]1NC(=O)CNC(=O)[C@H](Cc2ccccc2)NC(=O)[C@H](C(C)C)NC(=O)[C@H](C(C)C)NC(=O)[C@H](CO)NC(=O)COCCOCCNC(=O)CC[C@@H](C(N)=O)NC(=O)[C@H](CCCNC(=N)N)NC1=O ([AEEA]SVVFGLRE-NH2; lactam N-9) | Active | Active | –
3 | – | – | 50 | Unstable | H-SVVFGLR-NH2 | Active | Active | –
4 | Stable | – | – | Stable | CC(C)C[C@@H]1NC(=O)CNC(=O)[C@H](Cc2ccccc2)NC(=O)[C@H](C(C)C)NC(=O)[C@H](C(C)C)NC(=O)[C@H](CO)NC(=O)COCCOCCNC(=O)[C@@H](N)CSSC[C@@H](C(N)=O)NC(=O)CNC(=O)[C@H](CCCNC(=N)N)NC1=O | Active | Active | Active
5 | Stable | – | – | Stable | CC(C)C[C@@H]1NC(=O)CNC(=O)[C@H](Cc2ccccc2)NC(=O)[C@H](C(C)C)NC(=O)[C@H](C(C)C)NC(=O)[C@H](CO)NC(=O)COCCOCCNC(=O)[C@H](N)CSSC[C@H](C(N)=O)NC(=O)CNC(=O)[C@H](CCCNC(=N)N)NC1=O | Active | Active | –

From ChEMBL document CHEMBL4725403, “Improved design of peptides exhibiting angiogenic activities for clinical applications” (Bioorg Med Chem, 2020)
